The results in this text go back to US20170354645A1, “METHODS FOR TREATING KIDNEY DISORDERS” (Eli Lilly and Company, priority 2014, published 2017).

The test system of data set [1] is mouse remnant kidney model. Kind of data set: mouse remnant kidney model (5/6th nephrectomy) of chronic renal failure. It is filed as in vivo. The settings on record: 10 mg/kg orally once daily. The protocol:
The purpose of this assay is to analyze the compound of Formula I in a mouse chronic renal failure model, and particularly the ability to improve albuminuria and renal histopathological lesions. This assay is known as the mouse remnant kidney model, where following a unilateral nephrectomy, partial surgical removal of approximately ⅓ of the remaining kidney is carried out to replicate chronic renal failure. This model is sometimes also referred to as a “5/6th nephrectomy” model that was originally developed in rat. A description of this model may be found in published US patent application US 2014/0271675 (Qi, et al.) and (Leelahavanichkul, et al. (2010) Kidney Int. 78(11): 1136-1153.
Thirty-five eight to nine week old mice (strain 129/SvEv from Taconic) are employed in the model, and all have surgeries. A sham group having five mice have surgeries where the kidneys are not removed. The mice in the remaining two groups having fifteen mice each undergo remnant surgery. The surgeries take place approximately three weeks prior to the dosing portion of the study. The dosing portion of the study is 85 days long.
(§1) The oral vehicle for testing the compound of Formula I is 5% Kolliphor® HS 15, 5% EtOH, NaCMC 1%/SLS 0.5%/Antifoam 0.05%/Povidone 0.085% from Ricca Chemical Company. The sham group is fed a conventional diet (Purina Formulab Diet 5008) and is not dosed with vehicle or the compound of Formula I during the dosing portion of the study. One of the remaining two groups is orally dosed vehicle once daily (10 ml/kg), and the other group is orally dosed once daily with the compound of Formula I at 10 mg/kg, in vehicle. Both dosing groups receive a conventional diet (Purina Formulab Diet 5008) during the dosing portion of the study.
(§2) Spot urine samples are collected on day −7 prior to the dosing portion of the study. Urine samples are taken weekly during the dosing portion of the study. Body weights are measured on days 15, 29, 43, 57, 64, 71, and 78. Blood samples are taken at week 4 of the dosing portion of the study a well as at the study termination (day 84). At week 4 of the dosing portion of the study, the mean serum concentration of the compound of Formula I 24 hours after a 10 mg/kg dose is 49±66 ng/ml.

Data set [2] can be described thus: serum concentration in remnant kidney mice. Particulars: 129/SvEv, mouse, week 4 of dosing, 24 hours after a 10 mg/kg oral dose, once daily. Format: in vivo. The protocol:
as §1, §2

[3] abbreviates: renal morphology, compared with vehicle treatment.

As to `Cc1cc(OCc2c(-c3ccccc3OC(F)(F)F)noc2C2CC2)ccc1-c1ccc2c(C(=O)O)csc2c1` [compound of Formula I, 6-{4-[5-Cyclopropyl-3-(2-trifluoromethoxy-phenyl)-isoxazol-4-ylmethoxy]-2-methyl-phenyl}-benzo[b]thiophene-3-carboxylic acid], in data set [1] (remnant mice, observed within 2 weeks, persists through end of 85-day dosing), the “reduction in urine ACR (albumin/creatinine ratio)” value is 32-38%. Moreover, in data set [1] (renal morphology), the interstitial inflammation result is listed as “mildly reduced” and the tubular regeneration entry is on record as “mildly reduced”. In data set [1] (setting [3]), the “incidence and severity of glumerulosclerosis” value is given as “notably reduced”; the “incidence and severity of tubular protein” value was “notably reduced”; the “incidence of tubular changes (dilation, atrophy)” value was “reduced”. Further, the concentration at 24 h in data set [2] came to 49 ± 66 ng/mL.
